This note sets out measurements from patent US10526345B2, “Compounds as GPR119 agonists” (Mankind Pharma Ltd., priority 2016, dated 2020).

The first experiment addresses T1, hGPR119 (Homo sapiens, UniProt Q8TDV5).
T1 construct: expressed in transfected cells; host or cells: CHO
T1 sequence (Q8TDV5 1-335): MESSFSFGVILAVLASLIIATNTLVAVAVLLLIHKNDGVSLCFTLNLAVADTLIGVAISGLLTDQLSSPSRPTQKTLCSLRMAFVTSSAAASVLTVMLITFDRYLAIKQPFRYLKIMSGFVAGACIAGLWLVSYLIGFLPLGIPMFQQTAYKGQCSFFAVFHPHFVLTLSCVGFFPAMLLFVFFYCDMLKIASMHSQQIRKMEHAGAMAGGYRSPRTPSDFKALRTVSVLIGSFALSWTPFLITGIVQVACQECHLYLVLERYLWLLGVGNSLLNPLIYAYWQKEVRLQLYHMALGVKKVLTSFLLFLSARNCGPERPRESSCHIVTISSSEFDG
The experiment is described as follows: In vitro cyclic AMP assay (Cisbio dynamic 2 HTRF kit) in CHO-hGPR119 cells. The format is cell-based. To be noted: 1 h, cAMP, compound at 1 μM, 60 min, read-out: Induction (% induction at 1 μM). For orientation: TR-FRET usually uses a lanthanide donor and a delayed reading to cut background.
As to `Cc1cc(-c2ccc(S(C)(=O)=O)cc2)nc2sc(OCC3CCN(c4nc(C(C)C)no4)CC3)nc12` [Compound 1038, 3-isopropyl-5-(4-(((7-methyl-5-(4-(methylsulfonyl)phenyl)thiazolo[5,4-b]pyridin-2-yl)oxy)methyl)piperidin-1-yl)-1,2,4-oxadiazole], the activation at 1 µM came to 11%.
`Cc1nc(S(C)(=O)=O)ccc1-c1ccc2nc(OC(C)C3CCN(c4nc(C(C)C)no4)CC3)sc2n1` (stereo in doubt) [Compound 1168, 2-((S)-1-(1-(3-isopropyl-1,2,4-oxadiazol-5-yl)piperidin-4-yl)ethoxy)-5-(2-methyl-6-(methylsulfonyl)pyridin-3-yl)thiazolo[5,4-b]pyridine]: the activation at 1 µM came out at 22%.
Take `CC(C)c1noc(N2CCC([C@H](C)Oc3nc4ccc(-c5ccc(C(F)(F)F)nc5)nc4s3)CC2)n1` [Compound 1152, 2-(1-(1-(3-isopropyl-1,2,4-oxadiazol-5-yl)piperidin-4-yl)ethoxy)-5-(6-(trifluoromethyl)pyridin-3-yl)thiazolo[5,4-b]pyridine]: the activation at 1 µM turned out to be 77%.
Still for that read-out and setting: the result for `CC(C)OC(=O)N1CCC(C(C)Oc2nc3ccc(-c4ccc(S(C)(=O)=O)cc4)nc3s2)CC1` (stereo not drawn) [Compound 1056, isopropyl 4-(1-((5-(4-(methylsulfonyl)phenyl)thiazolo[5,4-b]pyridin-2-yl)oxy)ethyl)piperidine-1-carboxylate] reads 51%.
On to `Cc1ccc(S(=O)(=O)N2CC=C(c3nc4ccc(-c5ccc(S(C)(=O)=O)cc5)nc4s3)CC2)cc1` [Compound 1026, 5-(4-(methylsulfonyl)phenyl)-2-(1-tosyl-1,2,3,6-tetrahydropyridin-4-yl)thiazolo[5,4-b]pyridine], for which the activation at 1 µM turned out to be 5%.
On the same count and under the same terms, the result for `COCCNS(=O)(=O)c1ccc(-c2ccc3nc(N4CCC(c5nc(C(C)C)no5)CC4)sc3n2)cc1` [Compound 1073, 4-(2-(4-(3-isopropyl-1,2,4-oxadiazol-5-yl)piperidin-1-yl)thiazolo[5,4-b]pyridin-5-yl)-N-(2-methoxyethyl)benzenesulphonamide] reads 29%.
With `COCc1cnc(N2CCC(C(C)Oc3nc4ccc(-c5ccc(S(C)(=O)=O)nc5)nc4s3)CC2)nc1` (stereo not drawn) [Compound 1163, 2-(1-(1-(5-(methoxymethyl)pyrimidin-2-yl)piperidin-4-yl)ethoxy)-5-(6-(methylsulfonyl)pyridin-3-yl)thiazolo[5,4-b]pyridine], the activation at 1 µM amounted to 63%.
The same measure, in the same setting: to `CCc1cnc(N2CCC(C(C)Oc3nc4ccc(-c5ccc(S(C)(=O)=O)cc5)nc4s3)CC2)nc1` (stereo not drawn) [Compound 1055, 2-(1-(1-(5-ethylpyrimidin-2-yl)piperidin-4-yl)ethoxy)-5-(4-(methylsulfonyl)phenyl)thiazolo[5,4-b]pyridine] belongs 76%; to `CC(C)OC(=O)N1CCN(c2nc3ccc(-c4ccc(S(C)(=O)=O)cc4)nc3s2)CC1` [Compound 1012, isopropyl 4-(5-(4-(methylsulfonyl)phenyl)thiazolo[5,4-b]pyridin-2-yl)piperazine-1-carboxylate], 5%; to `CC(C)c1noc(N2CCC(C(C)Oc3nc4ncc(-c5ccc(S(C)(=O)=O)cc5)nc4s3)CC2)n1` (stereo not drawn) [Compound 1108, 3-isopropyl-5-(4-(1-((6-(4-(methylsulfonyl)phenyl)thiazolo[4,5-b]pyrazin-2-yl)oxy)ethyl)piperidin-1-yl)-1,2,4-oxadiazole], 65%.

The experiment is the same for the next values; noted with them: cAMP.
Consider `CC(C)c1noc(N2CCC([C@H](C)Oc3nc4ccc(-c5ccc(C(F)(F)F)nc5)nc4s3)CC2)n1` [Compound 1152, 2-(1-(1-(3-isopropyl-1,2,4-oxadiazol-5-yl)piperidin-4-yl)ethoxy)-5-(6-(trifluoromethyl)pyridin-3-yl)thiazolo[5,4-b]pyridine], for which the EC50 was in the range of 50 to 100 nM.

Still in this experiment, the particulars now being: cAMP, compound at 1 μM, 60 min.
As for `CC(C)c1noc(N2CCC([C@H](C)Oc3nc4ccc(-c5ccncc5F)nc4s3)CC2)n1` [Compound 1076, (S)-5-(4-(1-((5-(3-fluoropyridin-4-yl)thiazolo[5,4-b]pyridin-2-yl)oxy)ethyl)piperidin-1-yl)-3-isopropyl-1,2,4-oxadiazole], the “Induction (% induction at 1 μM)” value was determined as 35%.

Broadly, the EC50 is the concentration giving half of the maximal effect.
